Data from ChEMBL document CHEMBL1128995, “Synthesis and antitumor activity of (2R,3R)-2,3-dihydroxy- and -2,3-dialkoxy-1,4-diaminobutane platinum(II) complexes” (Bioorg Med Chem Lett, 1996).
Where “and” joins values, the source holds several entries; their conditions need not be identical. Equal values may be shown once.

Legend:
Type in all cases: functional, organism-based
Details in all cases: Mus musculus
L1210 [1] = test: Compound was tested for antitumor activity against L1210 Leukemia in mice at 25 mg/kg dose upon intraperitoneal administration: Toxic; parameters: dose 25 mg/kg
L1210 [2] = test: Compound was tested for antitumor activity against L1210 Leukemia in mice at 50 mg/kg dose upon intraperitoneal administration: Toxic; parameters: dose 50 mg/kg
L1210 [3] = test: Compound was tested for antitumor activity against L1210 Leukemia in mice at 100 mg/kg dose upon intraperitoneal administration; parameters: dose 100 mg/kg
L1210 [4] = test: Compound was tested for antitumor activity against L1210 Leukemia in mice at 12.5 mg/kg dose upon intraperitoneal administration; parameters: dose 12.5 mg/kg
L1210 [5] = test: Compound was tested for antitumor activity against L1210 Leukemia in mice at 25 mg/kg dose upon intraperitoneal administration; parameters: dose 25 mg/kg
L1210 [6] = test: Compound was tested for antitumor activity against L1210 Leukemia in mice at 6.25 mg/kg dose upon intraperitoneal administration; parameters: dose 6.25 mg/kg
L1210 [7] = test: Compound was tested for antitumor activity against L1210 Leukemia in mice at 12.5 mg/kg dose upon intraperitoneal administration: Toxic; parameters: dose 12.5 mg/kg
L1210 [8] = test: Compound was tested for antitumor activity against L1210 Leukemia in mice at 1.5 mg/kg dose upon intraperitoneal administration; parameters: dose 1.5 mg/kg
L1210 [9] = test: Compound was tested for antitumor activity against L1210 Leukemia in mice at 3.1 mg/kg dose upon intraperitoneal administration; parameters: dose 3.1 mg/kg
L1210 [10] = test: Compound was tested for antitumor activity against L1210 Leukemia in mice at 50 mg/kg dose upon intraperitoneal administration; parameters: dose 50 mg/kg

Substance	Activity (L1210 [1])	Activity (L1210 [2])	T/C (L1210 [3]) [%]	T/C (L1210 [4])	T/C (L1210 [5]) [%]	T/C (L1210 [6])	Activity (L1210 [7])	T/C (L1210 [8]) [%]	T/C (L1210 [9]) [%]	T/C (L1210 [10]) [%]
(2R,3R)-2,3-dihydroxy-1,4-diaminobutane Platinum (II) complex	Toxic	Toxic	195	118% and 131%	148	125% and 135%	–	–	–	–
CISPLATIN	Toxic	–	–	–	–	82%	Toxic	142	167	–
CARBOPLATIN	–	–	197	125%	148	107%	–	–	–	196
